# Measurements: ChEMBL document CHEMBL1137464, “Novel steroidal saponins, Sch 725737 and Sch 725739, from a marine starfish, Novodinia antillensis” (Bioorg Med Chem Lett, 2007)
# How the values were obtained:
# [1] = biological target: T1, Sodium channel protein type 10 subunit alpha (Homo sapiens, UniProt Q9Y5Y9); assay: Inhibition of sodium channel NaV1.8 at 20 ug/mL by HTS assay
# Target sequence in this assay (Q9Y5Y9 whole entry, looked up): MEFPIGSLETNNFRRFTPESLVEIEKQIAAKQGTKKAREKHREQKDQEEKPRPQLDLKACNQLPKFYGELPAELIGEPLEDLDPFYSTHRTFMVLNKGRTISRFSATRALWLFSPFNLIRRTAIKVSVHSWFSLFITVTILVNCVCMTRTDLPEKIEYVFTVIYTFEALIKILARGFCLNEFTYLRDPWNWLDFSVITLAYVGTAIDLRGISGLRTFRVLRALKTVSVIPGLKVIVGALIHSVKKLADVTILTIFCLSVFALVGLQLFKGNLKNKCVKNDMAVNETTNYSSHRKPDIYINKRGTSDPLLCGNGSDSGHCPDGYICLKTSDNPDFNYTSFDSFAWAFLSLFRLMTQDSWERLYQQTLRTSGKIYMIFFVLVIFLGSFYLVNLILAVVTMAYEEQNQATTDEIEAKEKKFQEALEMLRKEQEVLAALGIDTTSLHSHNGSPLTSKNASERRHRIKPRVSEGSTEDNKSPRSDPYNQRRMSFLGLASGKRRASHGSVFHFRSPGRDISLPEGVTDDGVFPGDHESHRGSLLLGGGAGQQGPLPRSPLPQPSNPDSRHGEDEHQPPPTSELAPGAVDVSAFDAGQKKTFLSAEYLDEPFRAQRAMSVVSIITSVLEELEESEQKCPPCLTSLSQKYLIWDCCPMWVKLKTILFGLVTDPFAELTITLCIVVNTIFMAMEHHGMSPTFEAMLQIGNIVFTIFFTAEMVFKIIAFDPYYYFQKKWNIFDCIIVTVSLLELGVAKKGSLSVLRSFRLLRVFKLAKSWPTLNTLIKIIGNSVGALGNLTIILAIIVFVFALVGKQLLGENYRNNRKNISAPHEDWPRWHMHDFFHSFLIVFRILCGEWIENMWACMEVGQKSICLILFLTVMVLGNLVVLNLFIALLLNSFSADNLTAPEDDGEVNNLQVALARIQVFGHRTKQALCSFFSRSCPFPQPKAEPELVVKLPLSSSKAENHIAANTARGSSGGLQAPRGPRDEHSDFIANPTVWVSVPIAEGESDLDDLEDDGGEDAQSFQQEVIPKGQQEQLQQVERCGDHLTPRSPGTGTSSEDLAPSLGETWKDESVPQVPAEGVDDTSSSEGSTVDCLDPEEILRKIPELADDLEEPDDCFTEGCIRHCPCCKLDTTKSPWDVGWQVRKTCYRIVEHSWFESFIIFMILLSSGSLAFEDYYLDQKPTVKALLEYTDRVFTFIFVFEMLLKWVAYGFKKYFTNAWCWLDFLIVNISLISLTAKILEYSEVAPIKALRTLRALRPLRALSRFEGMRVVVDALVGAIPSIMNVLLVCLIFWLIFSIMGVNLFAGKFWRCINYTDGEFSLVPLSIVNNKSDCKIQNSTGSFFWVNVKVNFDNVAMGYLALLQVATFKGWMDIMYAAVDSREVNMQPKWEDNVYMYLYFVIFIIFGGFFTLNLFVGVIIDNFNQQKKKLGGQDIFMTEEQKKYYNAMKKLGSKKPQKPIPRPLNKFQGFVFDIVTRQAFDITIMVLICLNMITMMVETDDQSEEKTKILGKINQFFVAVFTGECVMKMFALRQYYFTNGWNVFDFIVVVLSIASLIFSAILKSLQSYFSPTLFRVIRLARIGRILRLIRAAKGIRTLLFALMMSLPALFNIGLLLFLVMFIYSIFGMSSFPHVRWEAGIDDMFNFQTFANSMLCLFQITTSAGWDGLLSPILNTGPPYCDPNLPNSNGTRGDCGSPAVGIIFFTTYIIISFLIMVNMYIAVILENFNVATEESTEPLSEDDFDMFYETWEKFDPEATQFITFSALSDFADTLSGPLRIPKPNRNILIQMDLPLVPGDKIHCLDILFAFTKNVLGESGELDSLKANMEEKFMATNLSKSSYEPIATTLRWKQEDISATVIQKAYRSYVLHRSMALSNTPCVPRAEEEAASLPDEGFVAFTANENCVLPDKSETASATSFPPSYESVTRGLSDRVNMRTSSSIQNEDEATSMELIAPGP
# [2] = biological target: T1, Sodium channel protein type 10 subunit alpha; assay: Inhibition of sodium channel NaV1.8 expressed in rat ND7/23 cells by FLIPR assay; assay type: cell-based
# Target sequence in this assay (Q9Y5Y9 whole entry): as the sequence (Q9Y5Y9 whole entry, looked up) above
inhibition [1] [%],IC50 [2] [µM],Structure (SMILES)
88,–,CC(C)CCC[C@@](C)(O)[C@H]1CC[C@H]2[C@@H]3C[C@H](O[C@@H]4O[C@H](C)[C@@H](O)[C@H](O[C@@H]5O[C@H](C)[C@@H](O[C@@H]6O[C@H](C)[C@@H](O[C@@H]7OC[C@H](O)[C@H](O)[C@H]7O)[C@H](O)[C@H]6O[C@@H]6O[C@H](C)[C@H](O)[C@H](O)[C@H]6O)[C@H](O)[C@H]5O[C@@H]5O[C@H](C)[C@@H](O)[C@H](O)[C@H]5O)[C@H]4O)[C@H]4C[C@@H](OS(=O)(=O)O)CC[C@]4(C)C3=CC[C@@]21C
88,9,CC(C)CCC[C@@](C)(O)[C@H]1CC[C@H]2[C@@H]3C[C@H](O[C@@H]4O[C@H](C)[C@@H](O)[C@H](O[C@@H]5OC[C@@H](O[C@@H]6O[C@H](C)[C@@H](O[C@@H]7OC[C@H](O)[C@H](O)[C@H]7O)[C@H](O)[C@H]6O[C@@H]6O[C@H](C)[C@H](O)[C@H](O)[C@H]6O)[C@H](O)[C@H]5O[C@@H]5O[C@H](C)[C@@H](O)[C@H](O)[C@H]5O)[C@H]4O)[C@H]4C[C@@H](OS(=O)(=O)O)CC[C@]4(C)C3=CC[C@@]21C
